# Data from ChEMBL document CHEMBL4261615, “Design, synthesis, biological evaluation and cellular imaging of imidazo[4,5-b]pyridine derivatives as potent and selective TAM inhibitors” (Bioorg Med Chem, 2018).
# Calls of active or inactive are those of the source. The rule behind the calls is not given here.
# Tests used:
# [1] = target: T1, Tyrosine-protein kinase receptor TYRO3 (Homo sapiens) (UniProt Q06418); assay: Inhibition of recombinant GST-tagged human Tyro3 (451 to 890 residues) cytoplasmic domain expressed in Baculovirus expression system using poly (Glu-Ala-Tyr) peptide as substrate after 1.5 hrs by ELISA
# T1 sequence (whole entry): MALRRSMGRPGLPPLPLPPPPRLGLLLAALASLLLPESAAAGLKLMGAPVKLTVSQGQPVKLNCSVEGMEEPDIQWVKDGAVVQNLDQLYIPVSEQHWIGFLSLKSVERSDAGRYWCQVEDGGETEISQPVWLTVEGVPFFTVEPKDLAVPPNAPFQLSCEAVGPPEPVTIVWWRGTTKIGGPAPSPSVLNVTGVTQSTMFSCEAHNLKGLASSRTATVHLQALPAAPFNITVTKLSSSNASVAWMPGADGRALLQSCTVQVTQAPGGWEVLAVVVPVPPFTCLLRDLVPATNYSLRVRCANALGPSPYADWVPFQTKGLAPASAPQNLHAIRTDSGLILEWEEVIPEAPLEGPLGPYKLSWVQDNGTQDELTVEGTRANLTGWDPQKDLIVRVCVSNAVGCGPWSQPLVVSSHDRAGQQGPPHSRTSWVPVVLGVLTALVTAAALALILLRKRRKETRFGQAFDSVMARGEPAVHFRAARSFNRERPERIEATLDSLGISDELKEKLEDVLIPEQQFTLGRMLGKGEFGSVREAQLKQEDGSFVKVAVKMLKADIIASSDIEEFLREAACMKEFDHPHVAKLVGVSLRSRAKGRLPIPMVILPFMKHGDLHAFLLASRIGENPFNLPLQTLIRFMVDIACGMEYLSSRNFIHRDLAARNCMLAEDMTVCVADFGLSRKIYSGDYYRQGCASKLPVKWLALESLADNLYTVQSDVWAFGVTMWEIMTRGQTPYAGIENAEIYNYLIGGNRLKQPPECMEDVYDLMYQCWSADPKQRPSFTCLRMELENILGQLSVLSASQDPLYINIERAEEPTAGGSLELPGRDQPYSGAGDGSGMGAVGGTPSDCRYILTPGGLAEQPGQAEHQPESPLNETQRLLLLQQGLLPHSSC
# [2] = target: Tyrosine-protein kinase receptor UFO (Homo sapiens) (UniProt P30530); assay: Inhibition of recombinant His-tagged human Axl (473 to end residues) cytoplasmic domain expressed in insect system using poly (Glu-Ala-Tyr) peptide as substrate after 1.5 hrs by ELISA
# [3] = target: T2, Tyrosine-protein kinase Mer (Homo sapiens) (UniProt Q12866); assay: Inhibition of recombinant GST-tagged human Mer (578 to 872 residues) cytoplasmic domain expressed in Baculovirus system using poly (Glu-Ala-Tyr) peptide as substrate after 1.5 hrs by ELISA
# T2 sequence (whole entry): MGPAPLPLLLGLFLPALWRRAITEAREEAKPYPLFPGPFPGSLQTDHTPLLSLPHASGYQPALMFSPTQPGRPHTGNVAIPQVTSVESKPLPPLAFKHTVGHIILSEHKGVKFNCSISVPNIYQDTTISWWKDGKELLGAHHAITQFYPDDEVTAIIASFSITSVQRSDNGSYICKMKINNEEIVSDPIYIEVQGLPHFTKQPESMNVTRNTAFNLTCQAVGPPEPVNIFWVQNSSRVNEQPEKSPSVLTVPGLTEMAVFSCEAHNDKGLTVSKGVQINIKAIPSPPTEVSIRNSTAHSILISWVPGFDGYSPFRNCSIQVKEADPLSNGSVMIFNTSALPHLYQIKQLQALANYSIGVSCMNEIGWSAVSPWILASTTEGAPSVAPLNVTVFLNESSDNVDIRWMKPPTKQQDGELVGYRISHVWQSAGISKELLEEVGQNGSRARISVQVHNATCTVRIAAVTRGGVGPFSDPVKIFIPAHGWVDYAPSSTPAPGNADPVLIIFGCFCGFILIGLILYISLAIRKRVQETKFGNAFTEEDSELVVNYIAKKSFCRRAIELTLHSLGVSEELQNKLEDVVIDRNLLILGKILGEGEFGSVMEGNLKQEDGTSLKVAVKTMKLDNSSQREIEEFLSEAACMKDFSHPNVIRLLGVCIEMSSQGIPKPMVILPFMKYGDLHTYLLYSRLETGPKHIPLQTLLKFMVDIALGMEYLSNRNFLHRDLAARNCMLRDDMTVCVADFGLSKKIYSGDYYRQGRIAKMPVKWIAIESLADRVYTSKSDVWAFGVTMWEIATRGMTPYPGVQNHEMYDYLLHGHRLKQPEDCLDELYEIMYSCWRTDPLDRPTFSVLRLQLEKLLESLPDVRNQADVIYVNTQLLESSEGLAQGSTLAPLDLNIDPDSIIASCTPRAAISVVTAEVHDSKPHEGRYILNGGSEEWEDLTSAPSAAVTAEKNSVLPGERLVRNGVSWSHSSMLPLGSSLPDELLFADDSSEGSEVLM
# Homo sapiens = species: Homo sapiens; assay: (§1) Antiproliferative activity against human MGHU3 cells after 72 hrs by CellTiter-Glo assay; assay type: functional, cell-based
# RT-112 = assay: Antiproliferative activity against human RT112 cells after 72 hrs by CellTiter-Glo assay; assay type: functional, cell-based
# [4] = as §1; assay type: functional, cell-based
# A549 = assay: Antiproliferative activity against human A549 cells after 72 hrs by CellTiter-Glo assay; assay type: functional, cell-based; settings: A549, 72 h
# Sequence of Tyrosine-protein kinase receptor UFO (Homo sapiens) (P30530 whole entry, the tested form may be a part): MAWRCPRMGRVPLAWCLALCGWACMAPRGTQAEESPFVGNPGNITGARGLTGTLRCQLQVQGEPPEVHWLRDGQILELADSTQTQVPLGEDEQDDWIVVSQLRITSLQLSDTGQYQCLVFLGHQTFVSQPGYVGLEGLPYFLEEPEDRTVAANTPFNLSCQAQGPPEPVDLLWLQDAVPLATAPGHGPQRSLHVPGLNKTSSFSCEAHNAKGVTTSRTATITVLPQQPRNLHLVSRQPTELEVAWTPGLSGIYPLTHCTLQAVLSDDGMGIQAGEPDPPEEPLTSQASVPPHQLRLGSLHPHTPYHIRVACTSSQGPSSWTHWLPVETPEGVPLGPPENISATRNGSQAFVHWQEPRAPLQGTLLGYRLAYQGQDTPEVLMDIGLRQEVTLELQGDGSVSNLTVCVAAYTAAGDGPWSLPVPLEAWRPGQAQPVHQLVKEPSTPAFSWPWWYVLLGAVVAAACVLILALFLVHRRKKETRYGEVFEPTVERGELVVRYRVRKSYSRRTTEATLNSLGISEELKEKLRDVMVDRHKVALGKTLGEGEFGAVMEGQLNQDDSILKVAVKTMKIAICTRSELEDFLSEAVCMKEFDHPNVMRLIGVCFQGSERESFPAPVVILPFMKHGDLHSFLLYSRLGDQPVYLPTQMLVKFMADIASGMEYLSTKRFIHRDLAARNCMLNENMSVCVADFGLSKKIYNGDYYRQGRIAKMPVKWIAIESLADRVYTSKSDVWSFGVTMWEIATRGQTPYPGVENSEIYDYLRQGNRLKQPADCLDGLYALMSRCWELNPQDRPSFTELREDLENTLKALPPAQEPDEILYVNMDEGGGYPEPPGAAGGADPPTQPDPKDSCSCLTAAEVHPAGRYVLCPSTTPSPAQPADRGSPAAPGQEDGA
Structure (SMILES),inhibition [1],inhibition [2],inhibition [3],IC50 (A549) [µM],Activity (Homo sapiens),Activity (RT-112),IC50 [4] [µM],"IC50 (RT-112; RT-112, 72 h) [µM]"
CCc1nc2c(Oc3ccc(NC(=O)c4cccn(-c5ccc(F)cc5)c4=O)cc3F)c(-c3ccc(O)cc3)cnc2[nH]1,inactive,inactive,inactive,,,,,
CC(C)c1nc2c(Oc3ccc(NC(=O)c4cccn(-c5ccc(F)cc5)c4=O)cc3F)c(-c3ccc(O)cc3)cnc2[nH]1,inactive,inactive,inactive,,,,,
COc1cc2nccc(Oc3ccc(NC(=O)C4(C(=O)Nc5ccc(F)cc5)CC4)cc3)c2cc1OC,,,,,Active,Active,,
CCOc1ccn(-c2ccc(F)cc2)c(=O)c1C(=O)Nc1ccc(Oc2ccnc(N)c2Cl)c(F)c1,,,,,Active,Active,,
CCc1nc2c(Oc3ccc(NC(=O)c4cccn(-c5ccc(F)cc5)c4=O)cc3F)c(-c3cccnc3)cnc2[nH]1,inactive,inactive,inactive,,,,,
COc1cc2/c(=N/c3ccc(Br)cc3F)nc[nH]c2cc1OCC1CCN(C)CC1 [VANDETANIB],,,,2.5 to 5,,,2.5 to 5,2.5 to 5

# Now from value to compound, other results behind:
inhibition [1],inhibition [2],inhibition [3],IC50 (A549) [µM],Structure (SMILES),Activity (Homo sapiens),Activity (RT-112),IC50 [4] [µM],"IC50 (RT-112; RT-112, 72 h) [µM]"
inactive,inactive,inactive,,CCc1nc2c(Oc3ccc(NC(=O)c4cccn(-c5ccc(F)cc5)c4=O)cc3F)c(-c3ccoc3)cnc2[nH]1,,,,
inactive,inactive,inactive,,CC(C)c1nc2c(Oc3ccc(NC(=O)c4cccn(-c5ccc(F)cc5)c4=O)cc3F)c(-c3cccnc3)cnc2[nH]1,,,,
inactive,inactive,inactive,,CC(C)c1nc2c(Oc3ccc(NC(=O)c4cccn(-c5ccc(F)cc5)c4=O)cc3F)c(-c3ccc(N(C)C)cc3)cnc2[nH]1,,,,
inactive,inactive,inactive,,O=C(Nc1ccc(Oc2c(-c3ccccc3)cnc3[nH]cnc23)c(F)c1)c1cccn(-c2ccc(F)cc2)c1=O,,,,
inactive,inactive,inactive,,CCc1nc2c(Oc3ccc(NC(=O)c4cccn(-c5ccc(F)cc5)c4=O)cc3F)c(-c3ccncc3)cnc2[nH]1,,,,
inactive,inactive,inactive,,CCc1nc2c(Oc3ccc(NC(=O)c4cccn(-c5ccc(F)cc5)c4=O)cc3F)c(-c3ccc(N(C)C)cc3)cnc2[nH]1,,,,
inactive,inactive,inactive,,CC(C)c1nc2c(Oc3ccc(NC(=O)c4cccn(-c5ccc(F)cc5)c4=O)cc3F)c(-c3ccoc3)cnc2[nH]1,,,,
inactive,inactive,inactive,,CC(C)c1nc2c(Oc3ccc(NC(=O)c4cccn(-c5ccc(F)cc5)c4=O)cc3F)c(-c3ccncc3)cnc2[nH]1,,,,
